Measurements as given in the supplement of paper PMC10307832.

Compound: CCN1CCC(CC1)N2C=C(N=N2)CNC3=CC4=C(C(=CN=C4C(=C3)Cl)C#N)NC5=CC(=C(C=C5)F)Cl [KIN001-266]
Test: relative viability (nuclei count vs DMSO), 5 days (fraction); higher = more cells survive
Method in brief: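 Hoechst staining, done together with fixation and permeabilisation, marked nuclei for 4× imaging and MetaXpress counting. This followed 5 days without medium change after lung cancer cell lines, kept overnight at 37 °C in 1536-well plates, were pinned with five library-drug doses (not always all listed) spaced by √10 on vehicle-anchored plates. Viability is the ratio of treated-well to vehicle-well nuclei, expressed as a median across plates. Plates passed only at control CV below 25% with at least one doubling.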

Cell Line	relative viability (0.08 µM)	relative viability (0.253 µM)	relative viability (0.8 µM)	relative viability (2.53 µM)	relative viability (8 µM)
NCI-H441	1.11	1.07	1.1	0.939	0.789
NCI-H1793	1.04	0.865	0.617	0.787	0.606
NCI-H23	1.01	1.03	0.935	0.917	0.858
HARA	0.959	1.04	0.937	1.06	0.747
NCI-H1792	0.987	0.919	0.856	0.908	1.01
NCI-H1703	1.06	0.873	0.954	0.789	0.806
NCI-H2342	1.02	0.971	0.958	0.965	1.1
CAL-12T	1.07	0.965	0.956	1.09	0.994
NCI-H727	1.03	0.966	0.843	0.904	0.656
NCI-H2085	1	1.04	0.865	0.973	0.777
NCI-H1395	0.948	0.974	1.14	0.892	0.844
NCI-H1648	0.853	0.859	0.893	0.823	0.966
NCI-H460	1.01	1.01	0.967	0.951	1.02
A549	1.02	0.974	1.03	0.891	0.939
IA-LM	0.95	0.956	0.888	1	0.931
EKVX	0.989	1	0.841	0.868	0.941
ChaGo-K-1	1.04	1.03	0.92	0.929	0.886
SW 900	1.02	0.873	0.777	0.848	0.624
NCI-H1755	0.968	0.994	0.995	0.975	0.96
NCI-H2228	1.03	1.02	1.02	0.903	0.808
NCI-H2087	0.957	1.03	0.94	1.06	0.786
LU99A	0.985	0.952	0.958	0.847	0.849
NCI-H1355	0.986	1.02	0.979	0.924	0.908
NCI-H520	1.01	1.05	1.08	0.943	1.01
NCI-H661	0.956	0.997	1.01	0.958	1.01
NCI-H650	1.03	0.972	1.13	0.955	1.15

Cell Line	relative viability (0.08 µM)	relative viability (0.253 µM)	relative viability (0.8 µM)	relative viability (2.53 µM)	relative viability (8 µM)
NCI-H647	1.03	1.01	1.11	0.94	0.942
201T	1.02	1	0.959	0.995	0.956
NCI-H838	0.935	0.967	0.961	0.949	0.829
SW 1573	1.07	0.899	1.04	0.924	0.689
PC-14	0.933	1.07	0.84	0.885	0.485
LK-2	1.14	0.885	1.2	0.969	1.12
COR-L23	1	0.984	1.02	0.983	0.828
NCI-H1944	1.07	0.972	0.919	1.02	0.974
HCC-78	0.964	0.998	0.913	0.99	0.956
NCI-H2405	1.03	1.02	0.977	0.958	0.821
SK-LU-1	1.09	1	0.987	0.886	0.709
EMC-BAC-2	1.07	1.21	0.98	1.07	0.989
NCI-H1650	0.964	1.01	0.895	0.805	0.464
NCI-H596	1.09	0.938	0.878	0.987	0.866
LCLC-97TM1	0.942	0.853	0.917	0.866	0.906
H3255	1.01	1.06	0.96	0.96	0.78
LXF-289	0.949	0.984	1	1	1.06
UMC-11	0.975	0.981	1	0.918	0.857
LC-2-ad	1.05	0.997	0.947	1.04	0.962
SK-MES-1	1.02	1.02	0.992	0.942	0.783
A-427	1.04	1.06	1.05	0.928	0.953
NCI-H322M	1.04	1	0.928	0.785	0.779
HCC-366	1.02	1.01	0.992	1.01	0.969
NCI-H1975	0.989	0.97	0.966	1.03	0.965
NCI-H1437	0.976	0.988	1.02	0.994	0.883
NCI-H2009	0.988	1.06	1	0.982	0.856

Cell Line	relative viability (0.08 µM)	relative viability (0.253 µM)	relative viability (0.8 µM)	relative viability (2.53 µM)	relative viability (8 µM)
NCI-H1651	0.955	1.01	0.957	1.01	0.96
LCLC-103H	1.08	1.04	1.08	1.06	1.02
NCI-H1666	1.07	1	0.896	0.99	0.959
NCI-H1734	1.01	1.01	1.08	0.858	0.855
EPLC-272H	1.08	1	0.915	0.893	0.686
NCI-H2023	0.915	0.997	1.15	0.926	0.94
BEN	0.991	0.931	1.06	0.864	0.996
COR-L 105	0.942	0.967	0.963	1	0.902
ABC-1	1.03	1.11	1.12	0.959	0.774
HCC-15	1.02	1.03	0.875	0.868	0.689
NCI-H2170	1	0.995	0.979	0.935	1.01
PC-3 [JPC-3]	1	1.06	0.916	1.03	0.859
NCI-H1993	0.971	0.916	0.815	0.81	0.724
NCI-H358	0.893	0.98	0.917	0.828	0.45
NCI-H1563	0.958	1	1.02	1.04	0.972
EBC-1	1.04	1.02	0.954	0.988	0.704
NCI-H1915	1.02	0.971	0.982	1.07	0.935
RERF-LC-KJ	1.05	1.04	0.975	0.992	0.726
LOU-NH91	1.07	1.04	0.737	0.85	0.845
NCI-H2347	1.04	1	1	0.989	0.582
NCI-H2126	1.01	1.03	0.978	0.925	0.975
HCC-827	1.03	1.05	0.715	1.08	0.98
Calu-6	0.995	1.04	1.02	0.969	0.798
NCI-H3122	0.967	1.02	1.01	0.919	0.95
HOP-62	1.01	1.05	1.02	1.02	0.995
HCC-44	0.967	0.994	0.983	0.968	1.08
